Reference: patent publication US6887890B2, “Compounds exhibiting thrombopoietin-like activities” (Chugai Seiyaku Kabushiki Kaisha, priority 2000, dated 2005)

System: Mpl-expressing Ba/F3 cell line (human mpl gene)
Experiment: Measurement of thrombopoietin (TPO) activity: viable cell count of Mpl-expressing Ba/F3 cell line (Cell Count Reagent SF, absorbance 450 nm)
Type: cell-based
Details: for Concentration: concentration corresponding to the maximum TPO activity value; for TPO activity: maximum TPO activity value, ODt/ODs×100 relative to maximum reaction of human TPO, Mpl-expressing Ba/F3 cells cultured at 37° C. for one day, at the concentration given
Protocol: The TPO activities of the compounds of the invention obtained in the aforementioned examples were measured by the procedure described below, for evaluation of their thrombopoietic effects.
Establishment of Mpl-expressing Ba/F3 Cell Line
The human mpl gene was cloned from cDNAs of the human erythroleukemia cell line HEL by PCR, and was incorporated into pCOS1 to construct an expression vector. The expression vector was transfected into Ba/F3 cells by electroporation method, and an Mpl-expressing Ba/F3 clone was established.
Measurement of Thrombopoietin (TPO) Activity
The cytokine-eliminated Mpl-expressing Ba/F3 line was plated in a 96-well plate at 25,000 cells/well. DMSO solutions containing the compounds obtained in each of the examples were then prepared to different specified concentration ranges, and each solution was added to the Mpl-expressing Ba/F3 cell line (final DMSO concentration: ≦0.1%), and the cell were cultured at 37° C. for one day. Human TPO (by R&D Systems or Genzyme) was used as a positive control.
Each of the cultured Mpl-expressing Ba/F3 cell lines was subjected to absorbance measurement at a wavelength of 450 nm (reference wavelength: 620 nm), corresponding to the viable cell count, using Cell Count Reagent SF (by Nacalai Tesque Inc.). The TPO activity of each compound for the Mpl-expressing Ba/F3 cell line was determined based on the following formula. TPO activity (%)=ODt/ODs×100
ODs: Absorbance at maximum reaction of human TPO (wavelength: 450-620 nm).
ODt: Absorbance of test solution (wavelength: 450-620 nm).
Tables 1 and 2 show the maximum TPO activity values and the corresponding concentrations of each compound, as obtained by the test described above.

Structure (SMILES)	Concentration [µM]	TPO activity [%]
Cl.NCCCC[C@H](NC(=O)Cc1c[nH]c2ccccc12)C(=O)Nc1ccc(C(c2ccc(NC(=O)[C@H](CCCCN)NC(=O)Cc3c[nH]c4ccccc34)cc2)c2ccc(NC(=O)[C@H](CCCCN)NC(=O)Cc3c[nH]c4ccccc34)cc2)cc1 [Example 1, tris[4-[N-α-[2-(1H-indol-3-yl)acetyl]-L-lysyl]aminophenyl]methane hydrochloride]	25	37.6
COc1ccc2[nH]c(C)c(CC(=O)N[C@@H](CCCCN)C(=O)Nc3ccc(C(c4ccc(NC(=O)[C@H](CCCCN)NC(=O)Cc5c(C)[nH]c6ccc(OC)cc56)cc4)c4ccc(NC(=O)[C@H](CCCCN)NC(=O)Cc5c(C)[nH]c6ccc(OC)cc56)cc4)cc3)c2c1.Cl [Example 6, tris[4-[N-α-[2-(5-methoxy-2-methyl-1H-indol-3-yl)acetyl]-L-lysyl]aminophenyl]methane hydrochloride]	25	17.4
Cc1[nH]c2ccccc2c1CC(=O)N[C@@H](CCCCN)C(=O)Nc1ccc(C(c2ccc(NC(=O)[C@H](CCCCN)NC(=O)Cc3c(C)[nH]c4ccccc34)cc2)c2ccc(NC(=O)[C@H](CCCCN)NC(=O)Cc3c(C)[nH]c4ccccc34)cc2)cc1.Cl [Example 7, tris[4-[N-α-[2-(2-methyl-1H-indol-3-yl)acetyl]-L-lysyl]aminophenyl]methane hydrochloride]	21	24.7
Cl.NCCCC[C@H](NC(=O)Cc1ccsc1)C(=O)Nc1ccc(C(c2ccc(NC(=O)[C@H](CCCCN)NC(=O)Cc3ccsc3)cc2)c2ccc(NC(=O)[C@H](CCCCN)NC(=O)Cc3ccsc3)cc2)cc1 [Example 13, tris[4-[N-α-[2-(thiophen-3-yl)acetyl]-L-lysyl]aminophenyl]methane hydrochloride]	25	25.7
Cl.NCCCC[C@H](NC(=O)c1cccnc1)C(=O)Nc1ccc(C(c2ccc(NC(=O)[C@H](CCCCN)NC(=O)c3cccnc3)cc2)c2ccc(NC(=O)[C@H](CCCCN)NC(=O)c3cccnc3)cc2)cc1 [Example 17, tris[4-[N-α-(3-pyridylcarbonyl)-L-lysyl]aminophenyl]methane hydrochloride]	50	16.5
Cl.NCCCC[C@H](NC(=O)Cc1c[nH]c2ccc(O)cc12)C(=O)Nc1ccc(C(c2ccc(NC(=O)[C@H](CCCCN)NC(=O)Cc3c[nH]c4ccc(O)cc34)cc2)c2ccc(NC(=O)[C@H](CCCCN)NC(=O)Cc3c[nH]c4ccc(O)cc34)cc2)cc1 [Example 18, tris[4-[N-α-[2-(5-hydroxy-1H-indol-3-yl)acetyl]-L-lysyl]aminophenyl]methane hydrochloride]	50	46.5
Cl.NCCCC[C@H](NC(=O)Cc1ccc(O)cc1)C(=O)Nc1ccc(C(c2ccc(NC(=O)[C@H](CCCCN)NC(=O)Cc3ccc(O)cc3)cc2)c2ccc(NC(=O)[C@H](CCCCN)NC(=O)Cc3ccc(O)cc3)cc2)cc1 [Example 19, tris[4-[N-α-[2-(4-hydroxyphenyl)acetyl]-L-lysyl]aminophenyl]methane hydrochloride]	50	19.1
Cc1[nH]c2ccccc2c1CC(=O)N[C@H](CCCCN)C(=O)Nc1ccc(C(c2ccc(NC(=O)[C@@H](CCCCN)NC(=O)Cc3c(C)[nH]c4ccccc34)cc2)c2ccc(NC(=O)[C@@H](CCCCN)NC(=O)Cc3c(C)[nH]c4ccccc34)cc2)cc1 [Example 21, tris[4-[N-α-[2-(2-methyl-1H-indol-3-yl)acetyl]-D-lysyl]aminophenyl]methane]	25	60.1
Cl.NCCCC[C@@H](NC(=O)Cc1ccsc1)C(=O)Nc1ccc(C(c2ccc(NC(=O)[C@@H](CCCCN)NC(=O)Cc3ccsc3)cc2)c2ccc(NC(=O)[C@@H](CCCCN)NC(=O)Cc3ccsc3)cc2)cc1 [Example 23, tris[4-[N-α-[2-(thiophen-3-yl)acetyl]-D-lysyl]aminophenyl]methane hydrochloride]	25	48.0
CN(C)CCCC[C@H](NC(=O)Cc1c[nH]c2ccccc12)C(=O)Nc1ccc(C(c2ccc(NC(=O)[C@H](CCCCN(C)C)NC(=O)Cc3c[nH]c4ccccc34)cc2)c2ccc(NC(=O)[C@H](CCCCN(C)C)NC(=O)Cc3c[nH]c4ccccc34)cc2)cc1 [Example 29, tris[4-[N-α-[2-(1H-indol-3-yl)acetyl]-N-εdimethyl-L-lysyl]aminophenyl]methane]	25	98.5
Cc1[nH]c2ccccc2c1CC(=O)N[C@@H](CCCCN(C)C)C(=O)Nc1ccc(C(c2ccc(NC(=O)[C@H](CCCCN(C)C)NC(=O)Cc3c(C)[nH]c4ccccc34)cc2)c2ccc(NC(=O)[C@H](CCCCN(C)C)NC(=O)Cc3c(C)[nH]c4ccccc34)cc2)cc1 [Example 30, tris[4-[N-α-[2-(2-methyl-1H-indol-3-yl)acetyl]-N-ε-dimethyl-L-lysyl]aminophenyl]methane]	25	108
COc1ccc2[nH]c(C)c(CC(=O)N[C@@H](CCCCN(C)C)C(=O)Nc3ccc(C(c4ccc(NC(=O)[C@H](CCCCN(C)C)NC(=O)Cc5c(C)[nH]c6ccc(OC)cc56)cc4)c4ccc(NC(=O)[C@H](CCCCN(C)C)NC(=O)Cc5c(C)[nH]c6ccc(OC)cc56)cc4)cc3)c2c1 [Example 31]	25	96.4
CN(C)CCCC[C@H](NC(=O)Cc1ccsc1)C(=O)Nc1ccc(C(c2ccc(NC(=O)[C@H](CCCCN(C)C)NC(=O)Cc3ccsc3)cc2)c2ccc(NC(=O)[C@H](CCCCN(C)C)NC(=O)Cc3ccsc3)cc2)cc1 [Example 32, tris[4-[N-α-[2-(thiophen-3-yl)acetyl]-N-ε-dimethyl-L-lysyl]aminophenyl]methane]	25	87.1
Cl.NCCCSC[C@H](NC(=O)Cc1c[nH]c2ccccc12)C(=O)Nc1ccc(C(c2ccc(NC(=O)[C@H](CSCCCN)NC(=O)Cc3c[nH]c4ccccc34)cc2)c2ccc(NC(=O)[C@H](CSCCCN)NC(=O)Cc3c[nH]c4ccccc34)cc2)cc1 [Example 33, tris[4-[N-[2-(1H-indol-3-yl)acetyl]-S-(3-aminopropyl)-L-cystyl]aminophenyl]methane hydrochloride]	50	17.4
Cl.N=C(N)NCCC[C@H](NC(=O)Cc1ccsc1)C(=O)Nc1ccc(C(c2ccc(NC(=O)[C@H](CCCNC(=N)N)NC(=O)Cc3ccsc3)cc2)c2ccc(NC(=O)[C@H](CCCNC(=N)N)NC(=O)Cc3ccsc3)cc2)cc1 (stereo partly drawn) [Example 38, tris[4-[N-α-[2-(thiophen-3-yl)acetyl]-L-arginyl]aminophenyl]methane hydrochloride]	25	124
Cc1[nH]c2ccccc2c1CC(=O)N[C@H](CCCNC(=N)N)C(=O)Nc1ccc(C(c2ccc(NC(=O)[C@@H](CCCNC(=N)N)NC(=O)Cc3c(C)[nH]c4ccccc34)cc2)c2ccc(NC(=O)[C@@H](CCCNC(=N)N)NC(=O)Cc3c(C)[nH]c4ccccc34)cc2)cc1.Cl (stereo partly drawn) [Example 39, tris[4-[N-α-[2-(2-methyl-1H-indol-3-yl)acetyl]-D-arginyl]aminophenyl]methane hydrochloride]	12.5	80.4
Cl.N=C(N)NCCC[C@@H](NC(=O)Cc1ccsc1)C(=O)Nc1ccc(C(c2ccc(NC(=O)[C@@H](CCCNC(=N)N)NC(=O)Cc3ccsc3)cc2)c2ccc(NC(=O)[C@@H](CCCNC(=N)N)NC(=O)Cc3ccsc3)cc2)cc1 (stereo partly drawn) [Example 40, tris[4-[N-α-[2-(thiophen-3-yl)acetyl]-D-arginyl]aminophenyl]methane hydrochloride]	12.5	59.0
NCC[C@H](NC(=O)Cc1c[nH]c2ccccc12)C(=O)Nc1ccc(C(c2ccc(NC(=O)[C@H](CCN)NC(=O)Cc3c[nH]c4ccccc34)cc2)c2ccc(NC(=O)[C@H](CCN)NC(=O)Cc3c[nH]c4ccccc34)cc2)cc1.O=C(O)C(F)(F)F [Example 131, tris[4-[β-aminomethyl-N-[2-(1H-indol-3-yl)acetyl]-L-alanyl]aminophenyl]methane trifluoroacetate]	50	88.0
Cc1[nH]c2ccccc2c1CC(=O)N[C@@H](CCN)C(=O)Nc1ccc(C(c2ccc(NC(=O)[C@H](CCN)NC(=O)Cc3c(C)[nH]c4ccccc34)cc2)c2ccc(NC(=O)[C@H](CCN)NC(=O)Cc3c(C)[nH]c4ccccc34)cc2)cc1.O=C(O)C(F)(F)F [Example 132, tris[4-[β-aminomethyl-N-[2-(2-methyl-1H-indol-3-yl)acetyl]-L-alanyl]aminophenyl]methane trifluoroacetate]	50	22.3
COc1ccc2[nH]c(C)c(CC(=O)N[C@@H](CCN)C(=O)Nc3ccc(C(c4ccc(NC(=O)[C@H](CCN)NC(=O)Cc5c(C)[nH]c6ccc(OC)cc56)cc4)c4ccc(NC(=O)[C@H](CCN)NC(=O)Cc5c(C)[nH]c6ccc(OC)cc56)cc4)cc3)c2c1.O=C(O)C(F)(F)F [Example 133, tris[4-[β-aminomethyl-N-[2-(5-methoxy-2-methyl-1H-indol-3-yl)acetyl]-L-alanyl]aminophenyl]methane trifluoroacetate]	50	89.6
